Assay results: BindingDB's records for patent US9334290 (Bristol Myers Squibb, 2016)

Molecular target: Tyrosine-protein kinase JAK2 (Homo sapiens, UniProt O60674)
Assay: Jak2 Tyrosine Kinase Assay
Details: pH 7.4; 25 °C

Tyrosine-protein kinase JAK2, sequence (O60674 whole entry): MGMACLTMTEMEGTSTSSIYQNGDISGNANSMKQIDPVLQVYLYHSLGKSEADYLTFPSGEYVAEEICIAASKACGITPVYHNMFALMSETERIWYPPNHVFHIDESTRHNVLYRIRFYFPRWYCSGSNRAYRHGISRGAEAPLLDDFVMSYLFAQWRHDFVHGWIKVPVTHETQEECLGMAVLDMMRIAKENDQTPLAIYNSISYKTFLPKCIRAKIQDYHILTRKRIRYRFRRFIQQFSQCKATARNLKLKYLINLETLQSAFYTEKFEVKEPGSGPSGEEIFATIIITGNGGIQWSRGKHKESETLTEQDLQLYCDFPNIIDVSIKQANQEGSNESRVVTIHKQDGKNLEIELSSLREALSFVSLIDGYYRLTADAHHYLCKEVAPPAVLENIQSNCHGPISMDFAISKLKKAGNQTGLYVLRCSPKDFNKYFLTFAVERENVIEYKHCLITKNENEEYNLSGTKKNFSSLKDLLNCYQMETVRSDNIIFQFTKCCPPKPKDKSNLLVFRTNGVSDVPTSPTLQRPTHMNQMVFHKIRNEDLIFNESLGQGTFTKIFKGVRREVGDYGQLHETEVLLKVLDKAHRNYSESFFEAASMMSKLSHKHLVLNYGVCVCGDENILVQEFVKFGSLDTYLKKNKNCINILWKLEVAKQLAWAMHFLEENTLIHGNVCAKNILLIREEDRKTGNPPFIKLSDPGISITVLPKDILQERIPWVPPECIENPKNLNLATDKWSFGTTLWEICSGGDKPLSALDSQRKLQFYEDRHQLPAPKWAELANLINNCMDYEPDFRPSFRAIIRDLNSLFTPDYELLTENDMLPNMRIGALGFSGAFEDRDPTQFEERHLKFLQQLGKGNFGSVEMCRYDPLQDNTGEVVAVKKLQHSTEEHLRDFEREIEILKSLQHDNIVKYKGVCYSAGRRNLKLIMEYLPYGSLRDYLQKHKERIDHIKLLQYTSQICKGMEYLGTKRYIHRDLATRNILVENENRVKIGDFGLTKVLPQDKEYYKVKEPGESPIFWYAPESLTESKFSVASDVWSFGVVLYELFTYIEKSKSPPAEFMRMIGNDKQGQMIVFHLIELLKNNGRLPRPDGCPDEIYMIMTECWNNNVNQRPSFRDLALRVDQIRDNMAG

Cc1c(-c2c(F)cc(C(N)=O)c3[nH]c4cc(C(C)(C)O)ccc4c23)cccc1-n1c(=O)[nH]c2c(F)cccc2c1=O [US9334290, 21]
IC50: 760 nM
